Data on five molecules can be found in patent US20140378408A1, “NUCLEOSIDE 5'-PHOSPHOROTHIOATE ANALOGUES AND USES THEREOF” (BAR-ILAN UNIVERSITY, an Israeli University, priority 2012, published 2014).

Molecules are shown by their SMILES. Like-named read-outs stand apart in the source and are kept apart here.

The target of one data set is T1, Aβ40-Zn^2+ aggregates (Homo sapiens, UniProt P05067).
T1 construct: Monomeric Aβ40 was incubated with either Cu^2+ or Zn^2+; purchased GL-Biochem (Shanghai)
Put plainly: DLS, re-solubilization of Aβ40-Zn^2+ aggregates. The settings on record: EDTA = 100%, clioquinol value refers to FIG. 5B, 5C.

A further data set deals with T2, Aβ28-Cu^+ complex (Homo sapiens, UniProt P05067).
T2 construct: we first studied Aβ28, as a more soluble fragment of Aβ40; purchased Sigma-Aldrich
Description: Titration of Aβ28-Cu^+ complex by chelators monitored by 1H-NMR. The settings on record: 6 eq chelator, 0.8 mM Aβ28-Cu^+, pD 7.

In a further data set the target is T3, Aβ40-Cu^2+ aggregates (Homo sapiens, UniProt P05067).
T3 construct: purchased GL-Biochem (Shanghai)
Put plainly: DLS, size reduction of Aβ40-Cu^2+ aggregates. The settings on record: aggregate alone 1836 nm; 25 μM Aβ40-Cu^2+, pH 6.6. The procedure:
PBS buffer, Aβ40, chelator, Zn(NO3)2, and Cu(NO3)2 solutions were filtered through a […] PVDF syringe filter. 496 μM Aβ40 solution in 10 mM PBS (pH 7.4) and 2 mM Zn(NO3)2 solution were mixed to obtain 200 μM Aβ40-Zn^2+ (1:1 ratio) of a cloudy solution. Similarly, 2 mM Cu(NO3)2 solution was added to 496 μM Aβ40 in 10 mM PBS (pH 6.6). Aβ40-Zn^2+/Cu^2+ (10 μl) solution was transferred to Eppendorf tubes containing 10 mM PBS buffer (64 or 67 μl) followed by the addition of 3 and 6 eq of 2 mM nucleotide (6 or 3 μl) solution and incubation for 45 min at RT. The resulting mixture was incubated for another 30 min at RT and DLS data were then collected in a 70 μl disposable cuvette. The final sample concentrations were 25 μM Aβ40, 25 μM Zn^2+ or Cu^2+, and 150 or 75 μM nucleotide.
Monomeric Aβ40 was incubated with either Cu^2+ or Zn^2+ for 45 min to form a 1:1 peptide metal-ion complex. […] For the Aβ40-Zn^2+ particles the instrument readings indicated a different size distribution. […] We evaluated the capacity of the phosphorothioate analogues to dissolve Aβ40-Cu^2+ or Zn^2+ aggregates, as compared to EDTA and clioquinol known for their ability to dissolve Aβ-M^2+ aggregates (Ritchie et al., 2003; Huang et al., 1997). The reduction of dH of Aβ40-Cu^2+ aggregates by EDTA, clioquinol, or tested compounds was compared to the dH of Aβ-Cu^2+ aggregate itself (FIG. 5A). In addition, the efficacy of the chelators ATP-γ-S, ADP-β-S, APCPP-γ-S and GDP-β-S to resolubilize Aβ40-Cu^2+ and Aβ40-Zn^2+ is described in FIGS. 5B and 5C relative to EDTA and clioquinol. EDTA efficiency in reducing Aβ particle size is considered as 100%.

The test system of data set [1] is PC12 cells. Description: Inhibition of Fe(II)-induced ROS formation in PC12 cells (DCFH-DA). Type of data set: cell-based. The settings on record: PC12 cells, FeSO4 0.16 μM, 1 h, DCFH-DA; read-out: IC50 inhibition of ROS formation. As for the experimental part:
In this study, nucleoside 5′-phosphorothioate analogues were explored as inhibitors of Fe(II)-induced oxidative stress in PC12 cells used as a neuronal model. Reduction of ROS production in PC12 cells by each one of the tested analogues was measured by DCFH-DA, a radical sensitive indicator. After DCFH-DA was removed, the tested analogue was added to the cells at a final concentration of 0.2-200 μM. Oxidation was initiated by the addition of FeSO4 (0.16 μM) to the wells. The plates were incubated for 1 h at 37° C., during which the absorbance was read by a Tecan fluorometer at 485/530 nm.

The conditions of data set [2]: OH radical inhibition, Fe^2+/H2O2 system, earlier work; cited from earlier work.
Another data set deals with primary neurons. Description: Protection of primary neuron culture against Aβ42 insult (trypan blue count). Type of data set: cell-based. The procedure: Primary neuron cells were cultured in 96 wells plate (95×10^4 per well). After 24 h the cells were treated with 50 μM Aβ42 and various concentrations of APCPP-γ-S (0.04-25 μM) for 48 h. Cell viability was measured by dyeing the cells with trypan blue and counts of the vital cells. The results shown are the mean±S.D of three independent experiments in triplicate (*P<0.05, vs. Aβ42 treatment).
Primary neurons cells were cultured in 96 wells plate (95×10^4 per well). […] Cell viability was measured by dyeing the cells with trypan blue and counts the vital cells. The results shown are the mean±S.D of three independent experiments in triplicate (*P<0.05, **P<0.01 vs. Aβ42 treatment).
In this study, the neuroprotective activity of APCPP-γ-S in neuronal cells exposed to toxic Aβ42 was evaluated. At first we measured the number of the viable neuronal cells after treatment with Aβ42 (5-50 μM) (FIG. 11). At 50 μM Aβ42, 50% of the neuronal culture remained vital. Next, we measured the protective effect of APCPP-γ-S: primary neurons were treated with APCPP-γ-S (0.04-25 μM) and 50 μM Aβ42 for 48 h.

The next data set has as its system cortical neurons. Description: Neuroprotection of cultured cortical neurons exposed to FeSO4 or FeSO4/H2O2. Type of data set: cell-based. The note with it: for protection: co-application with FeSO4 3 μM. As for the experimental part:
FIGS. 10A-10B show the neuroprotective effect of ATP-γ-S and GDP-β-S (0.2-200 μM, t=24 h) as evaluated by MTT production in cortical neurons exposed for 24 h to either FeSO4 at final concentration of 3 μM (10A); or both FeSO4 (3 μM) and H2O2 (100 μM) (10B). The results shown are the mean±SEM of three independent experiments in quadruplicate.
Cultured cortical neurons in 96-well plates were treated with different concentrations of FeSO4, or hydrogen peroxide and FeSO4, for 24 h at 37° C. Following exposure to various insults, the cells were treated with ATP-γ-S and GDP-β-S as described. Cells were subsequently incubated for a further 18-24 h as indicated before being assessed for viability measures. Neurons were treated with ATP-γ-S and GDP-β-S at three concentrations ([…]) simultaneously with 1.5, 3 or 6 μM FeSO4 for 24 h. Following 24 h incubation in the presence of both FeSO4 and ATP-γ-S and GDP-β-S cell viability measures were assessed by XTT assay. All experiments were performed in triplicate.
FeSO4 induced a concentration-dependent decrease in cell viability as assessed by XTT assay and morphological assessment following 24 h of exposure (FIG. 9). The neuroprotective effect of ATP-γ-S and GDP-β-S (due to iron chelation) was evaluated in cortical neurons exposed to FeSO4 for 24 h (FIG. 10).

Data set [3] in a line: ESR OH radical assay, Cu^+/H2O2 Fenton system. The settings on record: N/A = minimal radical production exceeds 10%.
Data set [4] is described as follows: ESR OH radical assay, Fe^2+/H2O2 Fenton system. The note with it: N/A = minimal radical production exceeds 10%.
For data set [5] the following is noted: literature; cited from earlier work.
For data set [6] the following is noted: literature; cited from earlier work. The source holds these as a separate data set.
The target in a further data set is T4, TNAP (Homo sapiens, UniProt P05186).
T4 sequence (P05186 18-501): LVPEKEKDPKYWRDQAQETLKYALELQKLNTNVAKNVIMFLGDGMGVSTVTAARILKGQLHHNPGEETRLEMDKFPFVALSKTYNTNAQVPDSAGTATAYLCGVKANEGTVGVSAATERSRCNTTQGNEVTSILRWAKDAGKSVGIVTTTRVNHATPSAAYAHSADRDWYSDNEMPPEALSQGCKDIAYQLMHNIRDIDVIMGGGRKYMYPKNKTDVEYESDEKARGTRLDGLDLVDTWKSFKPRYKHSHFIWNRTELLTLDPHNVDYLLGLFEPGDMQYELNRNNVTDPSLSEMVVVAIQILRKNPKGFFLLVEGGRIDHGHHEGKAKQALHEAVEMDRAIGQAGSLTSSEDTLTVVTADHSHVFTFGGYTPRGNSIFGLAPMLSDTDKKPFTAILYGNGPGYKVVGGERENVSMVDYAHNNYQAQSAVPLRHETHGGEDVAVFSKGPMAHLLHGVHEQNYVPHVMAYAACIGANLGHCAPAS
Description: Hydrolysis by TNAP. It is filed as in vitro ADME. The note with it: 1 h. The text has this:
The metabolic stability of APPCCl2P-α-S (isomer A) and APCPP-γ-S was further proven by their resistance to enzymatic hydrolysis by TNAP.

Data set [7] concerns PC12 cells. Put plainly: Stability of nucleotides in PC12 cells.
Setting [8] is: Table 2, neuroprotection of primary neurons exposed to FeSO4, read-out: IC50.
Where [9] appears, read: co-application of FeSO4 3 μM and H2O2 100 μM, read-out: IC50 neuroprotection.
Where [10] appears, read: cortical neurons, FeSO4 3 μM, 24 h, read-out: IC50 neuroprotection.

T2 sequence (P05067 672-699 limits assumed, one chain of several): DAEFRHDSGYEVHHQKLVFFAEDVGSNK
T3 sequence (P05067 672-711 limits assumed): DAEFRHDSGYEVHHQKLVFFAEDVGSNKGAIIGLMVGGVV
T1 sequence (P05067 672-711 limits assumed): as above

In the case of `Oc1c(I)cc(Cl)c2cccnc12` [Clioquinol, 5-chloro-7-iodoquinolin-8-ol], on Aβ40-Zn^2+ aggregates, the “efficacy in resolubilizing aggregates relative to EDTA” value is listed as “ca. 75 % of EDTA efficacy”. The “effect on Aβ28-Cu^+ 1H-NMR spectrum” value on Aβ28-Cu^+ complex is recorded as “slightly sharpened, yet, no signal pattern emerged”. In addition, the “dH (particle size) of Aβ40-Cu^2+ after chelator” value on Aβ40-Cu^2+ aggregates is 127 nm.
On to `Nc1ncnc2c1ncn2[C@@H]1O[C@H](COP(=O)(O)OP(=O)(O)OP(O)(O)=S)[C@@H](O)[C@H]1O` [ATP-γ-S, Adenosine 5′-[γ-thio]-triphosphate], for which the IC50 in the data set with PC12 cells [1] came to 180 nM; with primary neurons (50 μM Aβ42, 48 h, read-out: concentration that maintained 50% of neuronal cells), 800 nM; with primary neurons (primary neurons, read-out: IC50 protection from Aβ42 insult), 800 nM; in the data set on cortical neurons (setting [8]) it was 10 ± 8 nM; in the data set with cortical neurons (setting [9]) it was 1000 nM; in the data set with cortical neurons (setting [10]), 10 nM. Besides, in the data set with cortical neurons (primary cortical neuronal cells, read-out: IC50 protection from damage caused by FeSO4), the IC50 was determined as 10 nM. In addition, the “dH (particle size) of Aβ40-Cu^2+ after chelator” value on Aβ40-Cu^2+ aggregates was 110 nm. For the same molecule, the “times more active than ATP” value in data set [2] is 100. Besides, the “times more active than Trolox” value in data set [2] is on record as 20. Further, in the data set with cortical neurons (24 h), the protection is on record as 100%.
Consider `O=C(O)CN(CCN(CC(=O)O)CC(=O)O)CC(=O)O` [EDTA, ethylenediamine tetraacetic acid], for which the results for the IC90 in [3] and in data set [4] were 110 ± 7 µM and 98 ± 1 µM, respectively. The “log K of Cu^2+ complex” value in [5] is on record as 18.8. For the same molecule, the “log K of Zn^2+ complex” value in [6] is on record as 16.5.
`Nc1ncnc2c1ncn2[C@@H]1O[C@H](COP(=O)(O)OP(=O)(O)OP(=O)(O)O)[C@@H](O)[C@H]1O` [ATP, adenosine triphosphate]: the “Hydrolysis by TNAP” value on TNAP was determined as 100%. Further, the “log K of Cu^2+ complex” value in [5] is 6.34. In addition, the neuronal cells maintained with primary neurons (at 25 μM, 50 μM Aβ42, 48 h) is given as 45%. In addition, the IC50 with cortical neurons (Cortical neurone, Table 2, neuroprotection of primary neurons exposed to FeSO4, read-out: IC50) worked out at 30000 ± 2100 nM.
Consider `Nc1nc2c(ncn2[C@@H]2O[C@H](COP(=O)(O)OP(O)(O)=S)[C@@H](O)[C@H]2O)c(=O)[nH]1` [GDP-β-S, guanosine 5′-[β-thio]diphosphate], for which the IC50 with PC12 cells [1] was determined as 10000 nM; in the data set on cortical neurons (setting [8]), 80 ± 3 nM; with cortical neurons (setting [9]) it was 4000 nM; with cortical neurons (setting [10]) it was 8 nM. Moreover, the “effect on Aβ28-Cu^+ 1H-NMR spectrum” value on Aβ28-Cu^+ complex is “partial recovery of Aβ28 aromatic signals”. For the same molecule, the “fold more stable in PC12 cells than parent nucleotide (GDP, ADP)” value in the data set on PC12 cells [7] is reported as 4.5 fold. Besides, the protection with cortical neurons (24 h) is 130%.
